Data as given in ChEMBL document CHEMBL1124168 (J Med Chem, 1988).

Tests used:
[1] = tested on: Canis familiaris; experiment: Agonist activity was measured as maximum urine osmolality with a dose of 100 ug/kg peptide after pretreatment with indomethacin in dog
[2] = tested on: Rattus norvegicus; experiment: […] antagonist activity was measured by dose required to lower urine osmolality to 300 mOsm/kg of H2O; assay type: functional
[3] = tested on: Canis familiaris; experiment: Antagonist activity was measured by maximum urine flow with a dose of 100 ug/kg peptide; assay type: functional, Canis lupus familiaris
[4] = tested on: Canis familiaris; experiment: Antagonist activity was measured by maximum urine osmolality with a dose of 100 ug/kg peptide after pretreatment with indomethacin ([…]) in dog; assay type: functional, Canis lupus familiaris
[5] = biological target: Vasopressin V2 receptor (Homo sapiens, UniProt P30518); experiment: In vitro antagonist activity was measured by inhibition of vasopressin-stimulated adenylate cyclase in renal medullary preparation in human; assay type: functional, tissue-based, Renal medulla
[6] = biological target: Vasopressin V2 receptor (Sus scrofa, UniProt P32307); experiment: In vitro antagonist activity was measured by inhibition of vasopressin-stimulated adenylate cyclase in renal medullary preparation in pig; assay type: functional, tissue-based, Renal medulla
[7] = tested on: Canis familiaris; experiment: Antagonist activity was measured by maximum urine osmolality with a dose of 100 ug/kg peptide after pretreatment with indomethacin in dog; assay type: functional, Canis lupus familiaris
[8] = species: Sus scrofa; experiment: (§1) In vitro antagonist activity was measured by inhibition of binding of [3H]LVP to renal medullary membrane preparation in pig; assay type: functional; details: Renal medulla
[9] = tested on: Rattus norvegicus; experiment: […] antagonist activity is measured by dose required to lower urine osmolality to 300 mOsm/kg of H2O; assay type: functional
[10] = biological target: Vasopressin V2 receptor (Sus scrofa) (UniProt P32307); experiment: as §1; assay type: tissue-based; details: Renal medulla
[11] = biological target: Adenylate cyclase; experiment: In vitro antagonist activity was measured by inhibition of vasopressin-stimulated adenylate cyclase in renal medullary preparation in human

Chain of Vasopressin V2 receptor (Homo sapiens, UniProt P30518) (P30518 whole entry): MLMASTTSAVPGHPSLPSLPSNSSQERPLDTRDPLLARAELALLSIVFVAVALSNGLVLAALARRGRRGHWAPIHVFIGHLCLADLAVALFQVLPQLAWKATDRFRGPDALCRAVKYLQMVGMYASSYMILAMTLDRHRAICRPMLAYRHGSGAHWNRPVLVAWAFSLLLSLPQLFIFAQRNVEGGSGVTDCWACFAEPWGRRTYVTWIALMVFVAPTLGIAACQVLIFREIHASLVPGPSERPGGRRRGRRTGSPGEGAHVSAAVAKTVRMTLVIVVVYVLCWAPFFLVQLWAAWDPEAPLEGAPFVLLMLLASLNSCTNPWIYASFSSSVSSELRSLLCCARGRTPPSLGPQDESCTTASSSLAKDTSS
Chain of Vasopressin V2 receptor (Sus scrofa, UniProt P32307) (P32307 whole entry): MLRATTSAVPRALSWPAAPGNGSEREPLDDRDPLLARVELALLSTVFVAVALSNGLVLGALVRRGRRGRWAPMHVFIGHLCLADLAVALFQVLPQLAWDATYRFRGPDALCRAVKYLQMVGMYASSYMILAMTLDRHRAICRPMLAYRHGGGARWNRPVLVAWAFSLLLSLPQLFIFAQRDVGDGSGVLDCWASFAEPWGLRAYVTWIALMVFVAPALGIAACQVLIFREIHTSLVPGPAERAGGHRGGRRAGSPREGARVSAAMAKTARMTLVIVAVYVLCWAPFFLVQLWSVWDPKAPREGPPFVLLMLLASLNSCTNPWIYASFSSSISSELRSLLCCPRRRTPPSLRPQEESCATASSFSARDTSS
Chain of Vasopressin V2 receptor (Sus scrofa) (P32307 whole entry): as above

Row | SMILES | Ki [5] [nM] | Kb [8] [nM] | ED300 [2] [mg/kg] | Volume [3] [mL/min] | U osm [7] [mOsmol kg-1] | further results
1 | CCOc1ccc(C[C@H]2NC(=O)CC3(CCCCC3)CCC[C@@H](C(=O)N3CCC[C@H]3C(=O)N[C@@H](CCCN=C(N)N)C(N)=O)NC(=O)[C@H](CC(N)=O)NC(=O)[C@H](C(C)C)NC(=O)[C@H](Cc3ccccc3)NC2=O)cc1 [listing 1 of 2 here] | – | – | 0.0122 | 0.69 | – | U osm [1]: 319 mOsmol kg-1
2 | N=C(N)NCCC[C@H](NC(=O)[C@@H]1CCCN1C(=O)[C@@H]1CSSC[C@H](N)C(=O)N[C@@H](Cc2ccc(O)cc2)C(=O)N[C@@H](Cc2ccccc2)C(=O)N[C@@H](CCC(N)=O)C(=O)N[C@@H](CC(N)=O)C(=O)N1)C(=O)NCC(N)=O [VASOPRESSIN] | – | – | – | 1.4 | – | U osm [4]: 939 mOsmol kg-1
3 | CCOc1ccc(C[C@H]2NC(=O)CC3(CCCCC3)CCC[C@@H](C(=O)N3CCC[C@H]3C(=O)N[C@@H](CCCN=C(N)N)C(N)=O)NC(=O)[C@H](CC(N)=O)NC(=O)[C@H](C(C)C)NC(=O)[C@H](Cc3ccccc3)NC2=O)cc1 [listing 2 of 2 here] | 2.7 | – | – | – | – | Ki [6]: 3.5 nM
4 | CCOc1ccc(C[C@H]2NC(=O)CC3(CCCCC3)SSC[C@@H](C(=O)N3CCC[C@H]3C(=O)N[C@@H](CCCN=C(N)N)C(N)=O)NC(=O)[C@H](CC(N)=O)NC(=O)[C@H](C(C)C)NC(=O)[C@H](Cc3ccccc3)NC2=O)cc1 | – | – | 0.0084 | 0.07 | 1302 | –
5 | CCOc1ccc(C[C@H]2NC(=O)CC3(CCCCC3)SSCC(C(=O)N3CCC[C@@H]3C(=O)N[C@@H](CCCN=C(N)N)C(N)=O)NC(=O)[C@H](CC(N)=O)NC(=O)[C@H](C(C)C)NC(=O)[C@H](Cc3ccccc3)NC2=O)cc1 (some centres not stated) | – | 11.8 | – | – | – | –
6 | CCOc1ccc(C[C@H]2NC(=O)CC3(CCCCC3)CCCC(C(=O)N3CCC[C@@H]3C(=O)N[C@@H](CCCN=C(N)N)C(N)=O)NC(=O)[C@H](CC(N)=O)NC(=O)[C@H](C(C)C)NC(=O)[C@H](Cc3ccccc3)NC2=O)cc1 (some centres not stated) | – | 7.1 | – | – | – | –
7 | CCOc1ccc(C[C@H]2NC(=O)CC3(CCCCC3)CCCC(C(=O)N[C@@H](CCCN=C(N)N)C(N)=O)NC(=O)[C@H](CC(N)=O)NC(=O)[C@H](C(C)C)NC(=O)[C@H](Cc3ccccc3)NC2=O)cc1 (some centres not stated) | – | – | – | – | – | Kb [10]: 14 nM; Ki [11]: 4.4 nM; ED300 [9]: 0.028 mg/kg
8 | COc1ccc2c(c1)c(CC(=O)O)c(C)n2C(=O)c1ccc(Cl)cc1 [INDOMETHACIN] | – | – | – | 2.8 | 92 | –

The next lines start with results.

Row | Ki [5] [nM] | Kb [8] [nM] | SMILES | ED300 [2] [mg/kg] | Volume [3] [mL/min] | U osm [7] [mOsmol kg-1] | further results
9 | 2.4 | 5.4 | CCOc1ccc(C[C@H]2NC(=O)CC3(CCCCC3)SSCC(C(=O)N[C@@H](CCCN=C(N)N)C(=O)N[C@H](CCCN=C(N)N)C(N)=O)NC(=O)[C@H](CC(N)=O)NC(=O)[C@H](C(C)C)NC(=O)[C@H](Cc3ccccc3)NC2=O)cc1 (some centres not stated) | 0.0135 | 0.76 | 429 | Ki [6]: 1.6 nM
10 | 1.5 | 10.2 | CCOc1ccc(C[C@H]2NC(=O)CC3(CCCCC3)SSCC(C(=O)N[C@@H](CCCN=C(N)N)C(N)=O)NC(=O)[C@H](CC(N)=O)NC(=O)[C@H](C(C)C)NC(=O)[C@H](Cc3ccccc3)NC2=O)cc1 (some centres not stated) | – | – | – | Ki [6]: 2.9 nM; ED300 [9]: 0.058 mg/kg
11 | 3.9 | 5.1 | CCOc1ccc(C[C@H]2NC(=O)CC3(CCCCC3)CCCC(C(=O)N[C@@H](CCCN=C(N)N)C(=O)N[C@H](CCCN=C(N)N)C(N)=O)NC(=O)[C@H](CC(N)=O)NC(=O)[C@H](C(C)C)NC(=O)[C@H](Cc3ccccc3)NC2=O)cc1 (some centres not stated) | 0.009 | 4.6 | 56 | –
